Reference: patent publication US12065410B2, “Crystal forms of 2-[4-[(2,3,4-trimethoxyphenyl)methyl]piperazin-1-yl]ethyl pyridine-3-carboxylate” (IMBRIA PHARMACEUTICALS, INC., priority 2020, dated 2024)
Converted amounts (≈) assume the structure as drawn. Each block holds one molecule with its values, some of them ahead of it.

What was measured:
Format in all cases: physicochemical
[1] = Dynamic vapor sorption (DVS) with XRPD before and after
Text: FIG. 8 is a dynamic vapor sorption isotherm plot. Cycle sorption is shown in red; cycle 1 desorption is shown in blue; and cycle 2 sorption is shown in green.
Pre-DVS data is shown in red; and post-DVS data is shown in blue.

[2] = Approximate solubility of starting material at RT by stepwise solvent addition; conditions: thermodynamic from solid
Procedure: Starting with Form A, polymorph screening experiments were set up under 34 conditions using methods of slurry conversion, liquid vapor diffusion, slow evaporation, and slow cooling. The approximate solubility of starting material was determined at room temperature (RT). Accurately weighed samples of approximately 2 mg weight were added into a 3-mL glass vial. Solvents were then added step wise (50/50/200/700 μL) into the vials until the solids were dissolved or a total volume of 1 mL was reached.

[3] = Solid-form stability on heating, vacuum dehydration and re-exposure to ambient RH (XRPD)
Procedure: CV-8972 starting material is shown in blue; CV-8972 following incubation at 90° C. for 8 hours is shown in red; and CV-8972 following incubation at 65° C. in a vacuum for 2 hours is shown in purple. To see if the small DSC endotherm at 85.3° C. corresponds to polymorphic phase transition or dehydration, XRPD was performed on Form A after storing it in an oven at 90° C. for 8 hours.
Data from starting material is shown in blue; data following incubation for 2 hours in vacuum oven are shown in red; and data from heated material that was exposed to ambient relative humidity is shown in green. To monitor Form A in its dehydrated state, it was placed in a vacuum oven at 65° C. for 2 hours followed by its XRPD analysis.

[4] = Slurry conversion / water activity / slurry competition at RT, solids analysed by XRPD
Procedure: Slurry conversion experiments were conducted at RT in different solvent systems. Approximately 20 mg of starting material was suspended in 0.1 mL of solvent in HPLC vials. After the suspension was stirred magnetically for 48 hours at RT, the remaining solids were isolated for XRPD analysis.

Water uptake (DVS) ([1]; 25° C. and 80% relative humidity (RH)): < 0.2%
Mass change (DVS) ([1]; beyond 80% RH, possible deliquescence): drastic increase in the mass change
XRPD of the sample after DVS ([1]; post-DVS versus pre-DVS): mostly similar to the starting material
SMILES: COc1ccc(CN2CCN(CCOC(=O)c3cccnc3)CC2)c(OC)c1OC [CV-8972, 2-[4-[(2,3,4-trimethoxyphenyl)methyl]piperazin-1-yl]ethyl pyridine-3-carboxylate]

solubility ([2]; CHCl3, organic solvent or mixture, CHCI3, RT): < 1800 µg/mL
solubility ([2]; organic solvent or mixture, 1,4-Dioxane, RT): < 1700 µg/mL
solubility ([2]; organic solvent or mixture, ACN, RT): < 1500 µg/mL
solubility ([2]; organic solvent or mixture, Acetone, RT): < 2000 µg/mL
solubility ([2]; organic solvent or mixture, CPME, RT): < 1500 µg/mL
solubility ([2]; organic solvent or mixture, DCM, RT): < 2200 µg/mL
solubility ([2]; organic solvent or mixture, DMF, RT): 1800 to 6000 µg/mL (≈ 4.33 to 14.4 mM)
solubility ([2]; organic solvent or mixture, DMSO, RT): 5000 to 15000 µg/mL (≈ 12 to 36.1 mM)
solubility ([2]; organic solvent or mixture, EtOAc, RT): < 1800 µg/mL
solubility ([2]; organic solvent or mixture, EtOH, RT): < 1700 µg/mL
solubility ([2]; organic solvent or mixture, IPA, RT): < 2300 µg/mL
solubility ([2]; organic solvent or mixture, IPAc, RT): < 1700 µg/mL
solubility ([2]; organic solvent or mixture, MEK, RT): < 2000 µg/mL
solubility ([2]; organic solvent or mixture, MIBK, RT): < 2000 µg/mL
solubility ([2]; organic solvent or mixture, MeOH, RT): > 46000 µg/mL
solubility ([2]; organic solvent or mixture, NMP, RT): 6700 to 20000 µg/mL (≈ 16.1 to 48.1 mM)
solubility ([2]; organic solvent or mixture, THF, RT): < 2200 µg/mL
solubility ([2]; organic solvent or mixture, Toluene, RT): < 2300 µg/mL
solubility ([2]; organic solvent or mixture, n-Heptane, RT): < 1900 µg/mL
solubility ([2]; water, H2O, RT): > 44000 µg/mL
Solid form after vacuum oven (XRPD) ([3]; 65° C. vacuum for 2 hours): Form E
Solid form after oven storage (XRPD) ([3]; 90° C. for 8 hours): converts to Form E
Hygroscopicity (DVS) ([1]; 25° C., up to 80% RH): non hygroscopic
Solid Form after slurry conversion ([4]; Acetone, stirred 48 hours at RT): Form A
Solid Form after slurry conversion ([4]; Acetone/H2O (aw = 0.2, 941/59), 48 hours at RT): Form A
Solid Form after slurry conversion ([4]; Acetone/H2O (aw = 0.4, 857/143), 48 hours at RT): Form A
Solid Form after slurry conversion ([4]; Acetone/H2O (aw = 0.6, 726/274), 48 hours at RT): Form A
Solid Form after slurry conversion ([4]; Acetone/H2O (aw = 0.8, 492/508), 48 hours at RT): Form A
Solid Form after slurry conversion ([4]; H2O, 48 hours at RT): Form A
Relative stability among polymorphs ([4]; ambient temperature and relative humidity): most stable
SMILES: COc1ccc(CN2CCN(CCOC(=O)c3cccnc3)CC2)c(OC)c1OC [Form A, 2-[4-[(2,3,4-trimethoxyphenyl)methyl]piperazin-1-yl]ethyl pyridine-3-carboxylate]

Solid form change on exposure to ambient temperature and humidity ([3]; ambient RH, rehydration): partial conversion to Form A
Solid form change in slurry competition between Forms D and E [4]: converted to Form A
Solid form change in water activity analysis ([4]; all conditions tested): converts to Form A
SMILES: COc1ccc(CN2CCN(CCOC(=O)c3cccnc3)CC2)c(OC)c1OC [Form E, 2-[4-[(2,3,4-trimethoxyphenyl)methyl]piperazin-1-yl]ethyl pyridine-3-carboxylate]
